Molecules are shown by their SMILES. pIC50: −log10 of the molar value.

A short description of this test: Inhibition of alpha-glucosidase (unknown origin) using pNPG substrate incubated for 15 mins by microplate reader based method.
For orientation: pIC50 means the IC50 on a negative log10 scale, so that one unit is a factor of ten. On to `COc1cc(/C=N/NC(=O)c2ccc(-c3nc4ccccc4s3)cc2)cc(OC)c1`, for which the pIC50 was 4.79.
The result for `COc1cc(/C=N/NC(=O)c2ccc(-c3nc4ccccc4s3)cc2)ccc1O` reads 4.27; that for `O=C(N/N=C/c1cc(O)ccc1O)c1ccc(-c2nc3ccccc3s2)cc1`, 4.93.
Turning to `O=C(N/N=C/c1c(O)cc(O)cc1O)c1ccc(-c2nc3ccccc3s2)cc1`, the pIC50 is 5.08.
For the compound `O=C(N/N=C/c1ccc(O)cc1O)c1ccc(-c2nc3ccccc3s2)cc1`, the pIC50 was 5.25.
Compound `O=C(N/N=C/c1cc(O)cc(O)c1)c1ccc(-c2nc3ccccc3s2)cc1` gave a pIC50 of 4.95.
To `O=C(N/N=C\c1ccco1)c1ccc(-c2nc3ccccc3s2)cc1` belongs 4.89.
`O=C(N/N=C/c1ccc(F)c(Br)c1)c1ccc(-c2nc3ccccc3s2)cc1`: the pIC50 is 4.55.
To `O=C(N/N=C/c1ccc(O)cc1)c1ccc(-c2nc3ccccc3s2)cc1` belongs 4.95; to `COc1ccc(/C=N/NC(=O)c2ccc(-c3nc4ccccc4s3)cc2)cc1`, 4.74; to `O=C(N/N=C/c1ccc(O)c(Br)c1)c1ccc(-c2nc3ccccc3s2)cc1`, 5.09.
To `O=C(N/N=C/c1ccc(Cl)cc1)c1ccc(-c2nc3ccccc3s2)cc1` belongs 5.27; to `O=C(N/N=C\c1ccccn1)c1ccc(-c2nc3ccccc3s2)cc1`, 4.99.
To `COc1ccc(O)c(/C=N/NC(=O)c2ccc(-c3nc4ccccc4s3)cc2)c1` belongs 5.19.
Compound `O=C(N/N=C/c1ccc(F)cc1)c1ccc(-c2nc3ccccc3s2)cc1` had a pIC50 of 5.15.
The result for `O=C(N/N=C/c1cccs1)c1ccc(-c2nc3ccccc3s2)cc1` reads 5.07; that for `O=C(N/N=C/c1cccc(O)c1)c1ccc(-c2nc3ccccc3s2)cc1`, 5.04; that for `COc1ccc(/C=N/NC(=O)c2ccc(-c3nc4ccccc4s3)cc2)c(I)c1O`, 4.35.
For the compound `O=C(N/N=C/c1ccccc1O)c1ccc(-c2nc3ccccc3s2)cc1`, the negative-log IC50 (pIC50) was 5.26.
With `O=C(N/N=C/c1ccc([N+](=O)[O-])cc1)c1ccc(-c2nc3ccccc3s2)cc1`, the pIC50 was 4.58.
`COc1ccc(/C=N/NC(=O)c2ccc(-c3nc4ccccc4s3)cc2)c(O)c1` had a negative-log IC50 (pIC50) of 5.16.
As to `COc1cccc(/C=N/NC(=O)c2ccc(-c3nc4ccccc4s3)cc2)c1`, the negative-log IC50 (pIC50) is 4.96.
The result for `O=C(N/N=C/c1cccc(O)c1O)c1ccc(-c2nc3ccccc3s2)cc1` reads 4.95.
Take `O=C(N/N=C/c1ccc(O)c(O)c1)c1ccc(-c2nc3ccccc3s2)cc1`: the pIC50 was 4.82.
To `O=C(N/N=C/c1ccccc1)c1ccc(-c2nc3ccccc3s2)cc1` belongs 5.09.

(Values after BindingDB's records for doi:10.1016/j.ejmech.2015.01.009 (Universiti Teknologi Mara (Uitm), 2015).)
